{"source": "patent US11864555B2", "about": "“Soil application of crop protection agents” (PIONEER HI-BRED INTERNATIONAL, INC., priority 2017, dated 2024)", "key": {"[1]": {"conditions": "cited from earlier work"}, "[2]": {"assay": "Aerobic soil degradation of cyantraniliprole in loam soil", "format": "physicochemical", "conditions": "90 days, pH 5.7", "experimental": "Loam soil had 29% sand, 50% silt, and 21% clay with 2.9% organic matter and a pH of 5.7. […] Soil (20.0 to 50 g) was weighed into individual glass containers and moisture was adjusted to field moisture capacity at approximately 27% by weight by adding de-ionized water to the containers. Afterward, the containers were covered with breathable tape and pre-incubated inside a temperature-controlled incubator at 25° C. for 6 days. The tape allowed free oxygen exchange between the container headspace and ambient air while minimizing soil water loss due to evaporation. […] The incubator temperature was monitored by a digital thermometer and Hobo data logger, and soil water loss was monitored by weighing each sample container during the experiment. […] Soil moisture content was brought back to field capacity once every 1-2 weeks by adding de-ionized water equivalent to the amount of moisture that was lost, monitored by weighing each container every week.\nAt sampling intervals of 0, 3, 7, 14, 28, 56 and 90 days, three containers from each treatment were removed from the incubator, and the 5 cyantraniliprole-containing particles were collected and transferred to 100 mL polypropylene bottles for extraction. […] Cyantraniliprole was separated by HPLC and quantified by UV detection at 220 nm using an external calibration curve of an analytical standard."}, "[3]": {"format": "in vivo, soybean", "conditions": "delivered via the CRYSTAL GREEN particles", "experimental": "The procedure used for Bead #1 was repeated, using CRYSTAL GREEN® fertilizer and the pesticide used was 50% chlorantraniliprole insecticide treatment. Analysis of the amount of chlorantraniliprole for Bead #14 was determined to be 2.15 μg chlorantraniliprole per milligram of bead. Individual rhizotron growth chambers were used as the test apparatus as described before. Beads #13 and 14, or the control solutions were applied to the center area of the soil plug at about 4 mm depth. All the rhizotron chambers were then transferred to the growth room and fit to black utility boxes with precut 4-inch-depth notches located on the left and right rim of the boxes, allowing the chambers to set at about 90 degree upright position. […]\nThe rhizotrons were maintained in a growth chamber with controlled temperature and light with a 14-hour day/10-hour night diurnal cycle. […] The amount of water or nutrient used was recorded. Plant growth stages were also recorded and photographed periodically. […]\nPlant leaflets were harvested 3 times at 24 days (R1 growth stage), 38 days (R4), and 49 days (R5.5) after planting for quantifying the pesticide concentrations. […] Each CPC was quantified by LC-MSMS method using electro-spray positive ionization mode. […] Remaining soil associated with the dried roots was removed and root weight was measured using an analytical balance."}, "[4]": {"assay": "Aerobic soil degradation of cyantraniliprole in Tama soil", "format": "physicochemical", "experimental": "Aerobic soil degradation of cyantraniliprole in the various beads was determined versus a stock aqueous solution by following the changes in cyantraniliprole concentration over time.\nTama soil (clay-loam soil) was collected and stored in a refrigerator prior to use. […] Soil (10.0 to 68.3 grams) was weighted into glass jars or polypropylene vials and the moisture content was adjusted to 32.4% (Field capacity for this soil) by adding deionized water to the containers. The containers were covered with tape and pre-incubated inside a temperature controlled incubator at 25° C. for 4 days. […] The incubator temperature was monitored by a digital thermometer, and soil water loss was monitored by weighing each sample container during the experiment. […]\nAt sampling intervals of 0, 3, 7, 14, 21, 28, 35, 56, 100 and 120 days, three containers from each treatment were removed from the incubator, and the four cyantraniliprole-containing particles or pellets in each container were collected and transferred to 100 mL polypropylene bottles for extraction. […] After the overnight extraction, the extracts were allowed to settle and the supernatant was filtered through 0.4 μm pore size polypropylene filters and stored in a −20° C. freezer before quantifying cyantraniliprole. […]"}}}
{"smiles": "CO/C=C(/C(=O)OC)c1ccccc1COc1cccc(C(F)(F)F)n1", "note": "[Picoxystrobin]", "values": [{"measurement": "water solubility", "setting": "[1]", "result": 3.25, "unit": "milligrams/liter"}]}
{"smiles": "CNC(=O)c1cc(C#N)cc(C)c1NC(=O)c1cc(Br)nn1-c1ncccc1Cl", "note": "[Control E, Cyantraniliprole]", "values": [{"measurement": "cyantraniliprole degraded by day 90", "setting": "[2]", "result": "~79", "unit": "%"}]}
{"smiles": "CNC(=O)c1cc(Cl)cc(C)c1NC(=O)c1cc(Br)nn1-c1ncccc1Cl", "note": "[Chlorantraniliprole]", "values": [{"measurement": "concentrations in leaf samples averaged from 24 to 49 days", "setting": "[3]", "result": 0.097, "unit": "μg/gram fresh leaves"}]}
{"smiles": "CNC(=O)c1cc(C#N)cc(C)c1NC(=O)c1cc(Br)nn1-c1ncccc1Cl", "note": "[stock solution, cyantraniliprole]", "values": [{"measurement": "cyantraniliprole degraded by day 100", "setting": "[4]; 100 days, pH 5.8", "result": "~76", "unit": "%"}, {"measurement": "half-life of biodegradation by soil microbes", "setting": "[4]; Tama soil, 25° C., aerobic", "result": "approximately 43 days"}]}
